Measurements from patent US9951040B2, “1,3,5 -triazine based PI3K inhibitors as anticancer agents and a process for the preparation thereof” (Council of Scientific and Industrial Research, priority 2014, dated 2018).
Where two headings read alike, the source gives them in different places.

Key:
PI3K alpha = PI3K alpha (Homo sapiens, UniProt P42336); assay: PI3K-α assay (ADP-Glo enzyme inhibition); type: biochemical; settings: at 500 nm
Protocol: Compounds were evaluated for their ability to inhibit class I PI3-kinase enzyme alpha as given below. PI3K-α Assay: PI3K alpha (diluted in 12.5 mM Glycine-NaOH (pH 8.5), 50 mM KCl, 2.5 mM MgCl2, 1 mM DTT, 0.05% CHAPS) is assayed in total volume of 20 ul containing 12.5 mM glycine-NaOH (pH 8.5), 50 mM KCl, 2.5 mM MgCl2, 1 mM DTT, 0.05% CHAPS, 0.01 mM ATP and 0.05 mM diC8 PIP2. The enzyme is assayed for 80 min after which 20 ul of ADP-Glo reagent is added. After a further incubation of 40 min, 40 ul of Kinase Detection Buffer is added. The assays are incubated for 40 min and then read on PerkinElmer Envision for 1 sec/well.

MCF-7 Cell line = assay: MTT cell proliferation assay, MCF-7; type: cell-based; settings: Homo sapiens, MCF7, 120 h, 5 days
Protocol: (§1) Human breast cancer cell lines MDAMB231, MFC-7 and human prostate carcinoma cell line PC-3 were obtained from European Collection of Cell Cultures (ECACC). Cells were grown in […] medium supplemented with 10% fetal bovine serum (FBS), penicillin (100 units/ml), streptomycin (100 μg/ml), L-glutamine (0.3 mg/ml), sodium pyruvate ([…]), and NaHCO3 (2 mg/ml). Cells were grown in CO2 incubator (Thermocon Electron Corporation, USA) at 37° C. in an atmosphere of 95% air and 5% CO2 with 98% humidity. Different molecules were dissolved in DMSO and were delivered to cell cultures in complete medium.
(§2) MTT assay was done to determine the viability of the cells and was done as described previously (Kumar et al, 2013). Briefly, 6×10^3 were seeded in 96 well plates and were treated with different concentrations of different molecules for 5 days. 20 μl of MTT dye (2.5 mg/ml) was added 3 h before the termination of the experiment. Formazen crystals were dissolved in 150 μl of DMSO and OD was measured at 570 nm.

PC-3 Cell line = assay: MTT cell proliferation assay, PC-3; type: cell-based; settings: Homo sapiens, PC-3, 120 h, 5 days
Protocol: as §1, §2

MDA-MB231 Cell line = assay: MTT cell proliferation assay, MDA-MB231; type: cell-based; settings: Homo sapiens, MDA-MB-231, 120 h, 5 days
Protocol: as §1, §2

[1] = read-out: In vitro PI3K α % of inhibition
[2] = read-out: inhibition against PI3K alpha

Sequence of PI3K alpha (P42336 whole entry, species assumed): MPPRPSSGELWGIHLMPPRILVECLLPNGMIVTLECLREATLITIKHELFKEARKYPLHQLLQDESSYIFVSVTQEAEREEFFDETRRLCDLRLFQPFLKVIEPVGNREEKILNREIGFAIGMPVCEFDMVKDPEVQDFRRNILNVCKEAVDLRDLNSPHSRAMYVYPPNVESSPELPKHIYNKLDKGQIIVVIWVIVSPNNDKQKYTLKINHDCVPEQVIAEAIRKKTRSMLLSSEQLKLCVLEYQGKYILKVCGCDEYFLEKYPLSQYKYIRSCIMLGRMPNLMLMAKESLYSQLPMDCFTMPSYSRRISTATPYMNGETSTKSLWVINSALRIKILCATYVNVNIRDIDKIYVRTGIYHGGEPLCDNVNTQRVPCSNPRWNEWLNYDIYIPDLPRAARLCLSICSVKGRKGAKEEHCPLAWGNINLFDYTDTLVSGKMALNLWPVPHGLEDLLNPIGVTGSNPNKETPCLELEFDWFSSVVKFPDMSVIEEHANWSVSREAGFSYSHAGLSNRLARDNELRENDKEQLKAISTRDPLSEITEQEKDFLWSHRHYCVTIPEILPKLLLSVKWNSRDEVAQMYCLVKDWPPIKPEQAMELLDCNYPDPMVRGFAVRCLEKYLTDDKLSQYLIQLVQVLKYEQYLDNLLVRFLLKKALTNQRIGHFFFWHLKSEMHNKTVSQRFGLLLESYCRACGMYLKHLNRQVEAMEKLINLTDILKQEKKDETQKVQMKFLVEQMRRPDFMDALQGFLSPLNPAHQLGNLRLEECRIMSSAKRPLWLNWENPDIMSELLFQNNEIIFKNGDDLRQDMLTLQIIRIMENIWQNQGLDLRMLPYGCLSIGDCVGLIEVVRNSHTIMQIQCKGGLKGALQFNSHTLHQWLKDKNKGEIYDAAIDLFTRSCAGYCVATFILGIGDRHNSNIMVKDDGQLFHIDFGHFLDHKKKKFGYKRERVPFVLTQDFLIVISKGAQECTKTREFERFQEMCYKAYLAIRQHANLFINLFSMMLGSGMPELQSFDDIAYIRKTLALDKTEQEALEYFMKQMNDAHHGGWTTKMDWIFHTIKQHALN
Sequence of PI3K alpha (P27986 whole entry partner, species assumed): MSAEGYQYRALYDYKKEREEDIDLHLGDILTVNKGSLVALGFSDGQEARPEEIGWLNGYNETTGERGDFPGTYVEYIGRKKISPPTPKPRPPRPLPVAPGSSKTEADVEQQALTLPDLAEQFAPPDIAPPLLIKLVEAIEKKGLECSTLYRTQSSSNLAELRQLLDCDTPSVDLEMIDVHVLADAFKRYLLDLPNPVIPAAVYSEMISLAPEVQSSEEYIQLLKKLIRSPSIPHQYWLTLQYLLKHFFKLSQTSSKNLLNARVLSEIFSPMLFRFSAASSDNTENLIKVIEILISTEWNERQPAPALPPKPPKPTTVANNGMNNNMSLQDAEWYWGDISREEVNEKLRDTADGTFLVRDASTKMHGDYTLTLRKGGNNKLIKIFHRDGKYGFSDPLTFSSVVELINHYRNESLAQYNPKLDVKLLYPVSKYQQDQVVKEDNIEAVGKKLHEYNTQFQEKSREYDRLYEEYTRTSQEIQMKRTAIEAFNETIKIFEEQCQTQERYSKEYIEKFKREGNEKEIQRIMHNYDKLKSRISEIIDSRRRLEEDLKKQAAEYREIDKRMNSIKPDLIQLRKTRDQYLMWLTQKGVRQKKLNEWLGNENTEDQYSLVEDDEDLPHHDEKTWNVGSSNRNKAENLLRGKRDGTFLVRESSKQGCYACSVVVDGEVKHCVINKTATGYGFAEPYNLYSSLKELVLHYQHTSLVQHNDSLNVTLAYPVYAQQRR

SMILES | inhibition at 0.5 µM (PI3K alpha; [1]) | inhibition at 0.5 µM (PI3K alpha; [2]) | inhibition at 10 µM (MCF-7 Cell line) | inhibition at 10 µM (PC-3 Cell line) | inhibition at 10 µM (MDA-MB231 Cell line)
O=C(N(c1ccc(F)cc1)c1nc(N2CCOCC2)nc(N2CCC(Oc3ccccc3)CC2)n1)C(F)(F)F [1A5, 2,2,2-trifluoro-N-(4-fluorophenyl)-N-(4-morpholino-6-(4-phenoxypiperidin-1-yl)-1,3,5-triazin-2-yl)acetamide] | > 70% | > 70% | 30 to 50% | > 50% | 30 to 50%
O=C(N(c1ccccc1)c1nc(N2CCOCC2)nc(N2CCC(Oc3ccc(OC(F)(F)F)cc3)CC2)n1)C(F)(F)F [1A9, 2,2,2-trifluoro-N-(4-morpholino-6-(4-(4-(trifluoromethoxy)phenoxy)piperidin-1-yl)-1,3,5-triazin-2-yl)-N-phenylacetamide] | > 70% | > 70% | > 50% | 30 to 50% | > 50%
FC(F)c1nc2ccccc2n1-c1nc(N2CCOCC2)nc(N2CCC(Oc3ccc(Cl)cc3)CC2)n1 [1B5, 4-(4-(4-(4-chlorophenoxy)piperidin-1-yl)-6-(2-(difluoromethyl)-1H-benzo[d]imidazol-1-yl)-1,3,5-triazin-2-yl)morpholine] | 50 to 70% | – | > 50% | – | 30 to 50%
FC(F)c1nc2ccccc2n1-c1nc(N2CCOCC2)nc(N2CCC(Oc3cccc(Cl)c3)CC2)n1 [1B6, 4-(4-(4-(3-chlorophenoxy)piperidin-1-yl)-6-(2-(difluoromethyl)-1H-benzo[d]imidazol-1-yl)-1,3,5-triazin-2-yl)morpholine] | 50 to 70% | – | > 50% | 30 to 50% | –
FC(F)c1nc2ccccc2n1-c1nc(N2CCOCC2)nc(N2CCC(Oc3ccccc3Cl)CC2)n1 [1B7, 4-(4-(4-(2-chlorophenoxy)piperidin-1-yl)-6-(2-(difluoromethyl)-1H-benzo[d]imidazol-1-yl)-1,3,5-triazin-2-yl)morpholine] | 50 to 70% | – | > 50% | – | 30 to 50%
Cc1cccc(OC2CCN(c3nc(N4CCOCC4)nc(-n4c(C(F)F)nc5ccccc54)n3)CC2)c1 [1B11, 4-(4-(2-(difluoromethyl)-1H-benzo[d]imidazol-1-yl)-6-(4-(m-tolyloxy)piperidin-1-yl)-1,3,5-triazin-2-yl)morpholine] | > 70% | > 70% | – | > 50% | 30 to 50%
FC(F)c1nc2ccccc2n1-c1nc(N2CCOCC2)nc(N2CCC(Nc3ccc(C(F)(F)F)cc3)CC2)n1 [1B22, 1-(4-(2-(difluoromethyl)-1H-benzo[d]imidazol-1-yl)-6-morpholino-1,3,5-triazin-2-yl)-N-(4-(trifluoromethyl)phenyl)piperidin-4-amine] | 50 to 70% | – | 30 to 50% | 30 to 50% | –
FC(F)c1nc2ccccc2n1-c1nc(N2CCOCC2)nc(N2CCC(Nc3ccc(OC(F)(F)F)cc3)CC2)n1 [1B23, 1-(4-(2-(difluoromethyl)-1H-benzo[d]imidazol-1-yl)-6-morpholino-1,3,5-triazin-2-yl)-N-(4-(trifluoromethoxy)phenyl)piperidin-4-amine] | > 70% | > 70% | 30 to 50% | 30 to 50% | –
COc1ccc(NC2CCN(c3nc(N4CCOCC4)nc(-n4c(C(F)F)nc5ccccc54)n3)CC2)cc1 [1B24, 1-(4-(2-(difluoromethyl)-1H-benzo[d]imidazol-1-yl)-6-morpholino-1,3,5-triazin-2-yl)-N-(4-methoxyphenyl)piperidin-4-amine] | > 70% | > 70% | – | – | 30 to 50%
FC(F)c1nc2ccccc2n1-c1nc(N2CCOCC2)nc(N2CCC(Nc3ccc(Br)cc3)CC2)n1 [1B25, N-(4-bromophenyl)-1-(4-(2-(difluoromethyl)-1H-benzo[d]imidazol-1-yl)-6-morpholino-1,3,5-triazin-2-yl)piperidin-4-amine] | > 70% | > 70% | > 50% | 30 to 50% | –
COc1ccccc1NC1CCN(c2nc(N3CCOCC3)nc(-n3c(C(F)F)nc4ccccc43)n2)CC1 [1B28, 1-(4-(2-(difluoromethyl)-1H-benzo[d]imidazol-1-yl)-6-morpholino-1,3,5-triazin-2-yl)-N-(2-methoxyphenyl)piperidin-4-amine] | > 70% | > 70% | > 50% | 30 to 50% | –
Fc1ccc(N(c2ccc(C(F)(F)F)cc2)C2CCN(c3nc(N4CCOCC4)nc(-n4c(C(F)F)nc5ccccc54)n3)CC2)cc1 [1B43, 1-(4-(2-(difluoromethyl)-1H-benzo[d]imidazol-1-yl)-6-morpholino-1,3,5-triazin-2-yl)-N-(4-fluorophenyl)-N-(4-(trifluoromethyl)phenyl)piperidin-4-amine] | > 70% | > 70% | – | – | –
Fc1ccc(N(c2ccc(Cl)cc2)C2CCN(c3nc(N4CCOCC4)nc(-n4c(C(F)F)nc5ccccc54)n3)CC2)cc1 [1B44, N-(4-chlorophenyl)-1-(4-(2-(difluoromethyl)-1H-benzo[d]imidazol-1-yl)-6-morpholino-1,3,5-triazin-2-yl)-N-(4-fluorophenyl)piperidin-4-amine] | 50 to 70% | – | – | – | –
Fc1ccc(N(c2ccncc2C(F)(F)F)C2CCN(c3nc(N4CCOCC4)nc(-n4c(C(F)F)nc5ccccc54)n3)CC2)cc1 [1B45, N-(1-(4-(2-(difluoromethyl)-1H-benzo[d]imidazol-1-yl)-6-morpholino-1,3,5-triazin-2-yl)piperidin-4-yl)-N-(4-fluorophenyl)-3-(trifluoromethyl)pyridin-4-amine] | 50 to 70% | – | – | – | –
Fc1ccc(NC2CCN(c3nc(N4CCOCC4)nc(-n4c(C(F)F)cc5ccccc54)n3)CC2)cc1 [1B46, 1-(4-(2-(difluoromethyl)-1H-indol-1-yl)-6-morpholino-1,3,5-triazin-2-yl)-N-(4-fluorophenyl)piperidin-4-amine] | 50 to 70% | – | – | – | –
COc1ccc(NC2CCN(c3nc(N4CCOCC4)nc(-n4c(C(F)F)cc5ccccc54)n3)CC2)cc1 [1B47, 1-(4-(2-(difluoromethyl)-1H-indol-1-yl)-6-morpholino-1,3,5-triazin-2-yl)-N-(4-methoxyphenyl)piperidin-4-amine] | > 70% | > 70% | – | – | –
FC(F)c1cc2ccccc2n1-c1nc(N2CCOCC2)nc(N2CCC(Nc3ccc(OC(F)(F)F)cc3)CC2)n1 [1B48, 1-(4-(2-(difluoromethyl)-1H-indol-1-yl)-6-morpholino-1,3,5-triazin-2-yl)-N-(4-(trifluoromethoxy)phenyl)piperidin-4-amine] | 50 to 70% | – | – | – | –
FC(F)c1cc2ccccc2n1-c1nc(N2CCOCC2)nc(N2CCC(Nc3ccc(C(F)(F)F)cc3)CC2)n1 [1B49, 1-(4-(2-(difluoromethyl)-1H-indol-1-yl)-6-morpholino-1,3,5-triazin-2-yl)-N-(4-(trifluoromethyl)phenyl)piperidin-4-amine] | > 70% | > 70% | – | – | –
FC(F)c1cc2ccccc2n1-c1nc(N2CCOCC2)nc(N2CCC(Nc3ccc(Cl)cc3)CC2)n1 [1B50, N-(4-chlorophenyl)-1-(4-(2-(difluoromethyl)-1H-indol-1-yl)-6-morpholino-1,3,5-triazin-2-yl)piperidin-4-amine] | 50 to 70% | – | – | – | –
